Assay results taken from patent US20240245673A1, “Papain-like protease (PLpro) inhibitors” (Pfizer Inc., priority 2022, published 2024).

Molecular target: SARS-CoV-2 Papain like protease (PLpro) (Severe acute respiratory syndrome coronavirus 2 (2019-nCoV) (SARS-CoV-2), UniProt P0DTD1)
Assay: Papain Like Protease (PLpro) biochemical assay with profluorogenic substrate Z-RLRGG-AMC
Settings: IC50 (μM), SARS-CoV-2 PLpro 6.25 nM, 25 μM Z-RLRGG-AMC substrate, 60 minute reaction

Compound	IC50 [µM]
Cc1cc(COCc2cscn2)ccc1C(=O)N[C@H](C)c1cc(-c2cnn(C)c2)nc2ccccc12 [Example 274, (R)-2-methyl-N-(1-(2-(1-methyl-1H-pyrazol-4-yl)quinolin-4-yl)ethyl)-4-((thiazol-4-ylmethoxy)methyl)benzamide]	0.002
Cc1ccc(N2CCN(C)CC2)cc1C(=O)NC1(c2cc(-c3cnn(C)c3)cc3ccccc23)CC1 [Example 231, 2-methyl-N-(1-(3-(1-methyl-1H-pyrazol-4-yl)naphthalen-1-yl)cyclopropyl)-5-(4-methylpiperazin-1-yl)benzamide]	0.003

Same assay, conditions: SARS-CoV-2 PLpro 6.25 nM, 25 μM Z-RLRGG-AMC substrate, 60 minute reaction; read-out: IC50

Compound	IC50 [µM]
Cc1ccc(NC(=O)[C@H]2CCCCN2)cc1C(=O)N[C@H](C)c1cc(-c2cnn(C)c2)cc2ccccc12 (single isomer, unassigned) [Example 66]	0.008
Cc1ccc(NC(=O)[C@H]2CCCCN2)cc1C(=O)NC(C)c1cc(-c2cn[nH]c2)cc2ccccc12 (stereo partly drawn) [Example 51, (2R)—N-(3-((1-(3-(1H-pyrazol-4-yl)naphthalen-1-yl)ethyl)carbamoyl)-4-methylphenyl)piperidine-2-carboxamide]	0.019
CCN(CCOC)c1cc(C(C)NC(=O)c2ccccc2C)c2ccccc2n1 (centres unmarked) [Example 149, N-(1-{2-[ethyl(2-methoxyethyl)amino]quinolin-4-yl}ethyl)-2-methylbenzamide]	2.17
Cc1ccccc1C(=O)NC(C)c1cc(-c2cncnc2)nc2ccccc12 (centres unmarked) [Example 130, 2-methyl-N-{1-[2-(pyrimidin-5-yl)quinolin-4-yl]ethyl} benzamide]	3.1
Cc1cc(COCc2cscn2)ccc1C(=O)NC1(c2cc(-c3cnn(CC(=O)N(C)C)c3)nc3ccccc23)CC1 [Example 342, N-(1-(2-(1-(2-(dimethylamino)-2-oxoethyl)-1H-pyrazol-4-yl)quinolin-4-yl)cyclopropyl)-2-methyl-4-((thiazol-4-ylmethoxy)methyl)benzamide]	< 0.001
Cc1cc(C(O)C(=O)Nc2cscn2)ccc1C(=O)N[C@H](C)c1cc(-c2cnn(C)c2)nc2ccccc12 (stereo partly drawn) [Example 301, 4-(1-hydroxy-2-oxo-2-(thiazol-4-ylamino)ethyl)-2-methyl-N-((R)-1-(2-(1-methyl-1H-pyrazol-4-yl)quinolin-4-yl)ethyl)benzamide]	0.001
Cc1cc(C(C)NC(=O)c2cscn2)ccc1C(=O)N[C@H](C)c1cc(-c2cnn(C)c2)nc2ccccc12 (stereo partly drawn) [Example 269, N-(1-(3-methyl-4-(((R)-1-(2-(1-methyl-1H-pyrazol-4-yl)quinolin-4-yl)ethyl)carbamoyl)phenyl)ethyl)thiazole-4-carboxamide]	0.041
Cc1cc(CC(=O)N(C)C)ccc1C(=O)N[C@H](C)c1cc(-c2cnn(C)c2)nc2ccccc12 [Example 260, (R)-4-(2-(dimethylamino)-2-oxoethyl)-2-methyl-N-(1-(2-(1-methyl-1H-pyrazol-4-yl)quinolin-4-yl)ethyl)benzamide]	0.244
CNc1cc([C@@H](C)NC(=O)c2ccccc2C)c2ccccc2n1 [Example 41, (R)-2-methyl-N-(1-(2-(methylamino)quinolin-4-yl)ethyl)benzamide]	1.01
Cc1ccccc1C(=O)N[C@H](C)c1cc(OCCO)nc2ccccc12 [Example 45, (R)-N-(1-(2-(2-hydroxyethoxy)quinolin-4-yl)ethyl)-2-methylbenzamide]	3.48
Cc1ccccc1C(=O)NC(C)c1cc(-c2cccnc2)nc2ccccc12 (centres unmarked) [Example 114, 2-methyl-N-{1-[2-(pyridin-3-yl)quinolin-4-yl]ethyl}benzamide]	0.877
Cc1ccccc1C(=O)N[C@H](C)c1cc(Nc2ccn(C)n2)nc2ccccc12 [Example 38, (R)-2-methyl-N-(1-(2-((1-methyl-1H-pyrazol-3-yl)amino)quinolin-4-yl)ethyl)benzamide]	1.63
Cc1ccccc1C(=O)N[C@H](C)c1cc(-c2cnoc2)nc2ccccc12 [Example 58, (R)-N-(1-(2-(isoxazol-4-yl)quinolin-4-yl)ethyl)-2-methylbenzamide]	100
Cc1ccccc1C(=O)NC(C)c1cc(NC2CCCOC2)nc2ccccc12 (centres unmarked) [Example 147]	0.909
COC[C@H](OCc1cscn1)c1ccc(C(=O)NC2(c3cc(-c4cc(C(=O)N(C)C)n[nH]4)nc4ccccc34)CC2)c(C)c1 (single isomer, unassigned) [Example 337]	< 0.001
Cc1cc(C(=O)NC2(c3ncc[nH]3)CC2)ccc1C(=O)N[C@H](C)c1cc(-c2cnn(C)c2)nc2ccccc12 [Example 242]	0.006
Cc1ccc(N2CCC(N)C2=O)cc1C(=O)N[C@H](C)c1cc(-c2cnn(C)c2)nc2ccccc12 (some centres unmarked) [Example 247]	0.091
COC(=O)c1c[nH]c(-c2cc(C(C)NC(=O)c3cc(N4CCN(C)CC4)ccc3C)c3ccccc3c2)c1 (centres unmarked) [Example 228, methyl 5-(4-(1-(2-methyl-5-(4-methylpiperazin-1-yl)benzamido)ethyl)naphthalen-2-yl)-1H-pyrrole-3-carboxylate]	0.007

Compound	IC50 [µM]
Cc1cc(COCc2cscn2)ccc1C(=O)NC1(c2cc(-c3cc(C(=O)N(C)CCN(C)C)n[nH]3)nc3ccccc23)CC1 [Example 329, N-(2-(dimethylamino)ethyl)-N-methyl-5-(4-(1-(2-methyl-4-((thiazol-4-ylmethoxy)methyl)benzamido)cyclopropyl)quinolin-2-yl)-1H-pyrazole-3-carboxamide]	< 0.001
Cc1cc(CN(C)C(=O)c2cscn2)ccc1C(=O)N[C@H](C)c1cc(-c2cnn(C)c2)nc2ccccc12 [Example 264, (R)-N-methyl-N-(3-methyl-4-((1-(2-(1-methyl-1H-pyrazol-4-yl)quinolin-4-yl)ethyl)carbamoyl)benzyl)thiazole-4-carboxamide]	0.022
Cc1cc(CNCc2cncn2C)ccc1C(=O)N[C@H](C)c1cc(-c2cnn(C)c2)nc2ccccc12 [Example 221, (R)-2-methyl-4-((((1-methyl-1H-imidazol-5-yl)methyl)amino)methyl)-N-(1-(2-(1-methyl-1H-pyrazol-4-yl)quinolin-4-yl)ethyl)benzamide]	0.015
Cc1ccccc1C(=O)NC(C)c1cc(-c2cnn(CCN3CCOCC3)c2)nc2ccccc12 (centres unmarked) [Example 125, 2-methyl-N-[1-(2-{1-[2-(morpholin-4-yl)ethyl]-1H-pyrazol-4-yl}quinolin-4-yl)ethyl]benzamide]	0.294
Cc1ccc2c(C3(NC(=O)c4ccc(COCc5cocn5)cc4C)CC3)cc(-c3cnn(C)c3)cc2n1 [Example 348, 2-methyl-N-(1-(2-methyl-7-(1-methyl-1H-pyrazol-4-yl)quinolin-5-yl)cyclopropyl)-4-((oxazol-4-ylmethoxy)methyl)benzamide]	< 0.001
Cc1cc(C2(NC(=O)c3cscn3)CC2)ccc1C(=O)N[C@H](C)c1cc(-c2cnn(C)c2)nc2ccccc12 [Example 212, (R)-N-(1-(3-methyl-4-((1-(2-(1-methyl-1H-pyrazol-4-yl)quinolin-4-yl)ethyl)carbamoyl)phenyl)cyclopropyl)thiazole-4-carboxamide]	0.058
COC[C@@H](OCc1cocn1)c1ccc(C(=O)NC2(c3cc(-c4cnn(C)c4)cc4nc(C)ccc34)CC2)c(C)c1 (single isomer, unassigned) [Example 365]	< 0.001
COC[C@H](OCc1cocn1)c1ccc(C(=O)NC2(c3cc(-c4cc(C(=O)N(C)C)n[nH]4)cc4ncccc34)CC2)c(C)c1 (single isomer, unassigned) [Example 359]	< 0.001
Cc1ccccc1C(=O)NC(C)c1cc(NCCS(=O)(=O)N(C)C)nc2ccccc12 (centres unmarked) [Example 148, N-[1-(2-{[2-(dimethylsulfamoyl)ethyl]amino}quinolin-4-yl)ethyl]-2-methylbenzamide]	1.77
Cc1ccccc1C(=O)NC(C)c1cc(-c2cn(C)nc2C)nc2ccccc12 (centres unmarked) [Example 126, N-{1-[2-(1,3-dimethyl-1H-pyrazol-4-yl)quinolin-4-yl]ethyl}-2-methylbenzamide]	0.845
Cc1cc(COCc2cscn2)ccc1C(=O)NC1(c2cc(-c3cnn(C)c3)cc3nc(O)ccc23)CC1 [Example 358, N-(1-(2-hydroxy-7-(1-methyl-1H-pyrazol-4-yl)quinolin-5-yl)cyclopropyl)-2-methyl-4-((thiazol-4-ylmethoxy)methyl)benzamide]	< 0.001
Cc1ccccc1C(=O)NC(C)c1cc(NCC2CCCOC2)nc2ccccc12 (centres unmarked) [Example 140, 2-methyl-N-[1-(2-{[(oxan-3-yl)methyl]amino}quinolin-4-yl)ethyl]benzamide]	1.96
Cc1cc(CSCc2nccn2C)ccc1C(=O)N[C@H](C)c1cc(-c2cnn(C)c2)nc2ccccc12 [Example 282, (R)-2-methyl-4-((((1-methyl-1H-imidazol-2-yl)methyl)thio)methyl)-N-(1-(2-(1-methyl-1H-pyrazol-4-yl)quinolin-4-yl)ethyl)benzamide]	0.006
COC[C@H](OCc1cscn1)c1ccc(C(=O)NC2(c3cc(-c4cc(C(=O)N(C)C)n[nH]4)cc4ncccc34)CC2)c(C)c1 (single isomer, unassigned) [Example 361]	< 0.001
COCC(OCc1cscn1)c1ccc(C(=O)NC2(c3cc(-c4cnn(C)c4)nc4ccccc34)CC2)c(C)c1 (single isomer, unassigned) [Example 324]	< 0.001
COC[C@H](OCc1cscn1)c1ccc(C(=O)N[C@H](C)c2cc(-c3cnn(C)c3)nc3ccccc23)c(C)c1 (single isomer, unassigned) [Example 333, 4-((R*)-2-methoxy-1-(thiazol-4-ylmethoxy)ethyl)-2-methyl-N-((R)-1-(2-(1-methyl-1H-pyrazol-4-yl)quinolin-4-yl)ethyl)benzamide]	< 0.001
Cc1cc(C(=O)NCc2nccn2C)ccc1C(=O)NC1(c2cc(-c3cnn(C)c3)nc3ccccc23)CC1 [Example 253]	0.006
Cc1cc(CC(=O)Nc2ncsc2C)ccc1C(=O)N[C@H](C)c1cc(-c2cnn(C)c2)nc2ccccc12 [Example 298, (R)-2-methyl-N-(1-(2-(1-methyl-1H-pyrazol-4-yl)quinolin-4-yl)ethyl)-4-(2-((5-methylthiazol-4-yl)amino)-2-oxoethyl)benzamide]	< 0.001
